From patent US5925369A, “Bis alkanoyl esters of carnitine having bactericidal, fungicidal and antiprotozoal activity” (priority 1996, dated 1999)
Read-outs that look alike come from different tables or passages of the source.

Legend:
[1] = system: E. aerogenes; experiment: MIC on Gram negative bacteria; format: cell-based; settings: Klebsiella aerogenes; E. aerogenes UM, lab collection; read-out: Minimal Inhibitory Concentration
Method: (§1) Bacterial suspensions are prepared from an overnight culture in Mueller-Hinton broth and are adjusted, in the same medium, to a final concentration of 5.0×10^4 cells/ml in each well of a 96-well microtiter plate. Substance dilutions (0.3 log) in Mueller-Hinton broth are added to the suspensions in order to have a range of final concentrations from 0.19 to 100 mcg/ml.
(§2) Microtiters are then incubated at 37° C. for 18 hours. (See L. D. THRUPP, Susceptibility testing of antibiotics in liquid media, in: Antibiotics in laboratory medicine. V. LORIAN Ed., II edition, 4, 93-150, Williams & Wilkins, Baltimora, Md. 21202 U.S.A.).

[2] = system: E. coli (Escherichia coli); experiment: MIC on Gram negative bacteria; format: cell-based; settings: read-out: Minimal Inhibitory Concentration
Method: as §1, §2

[3] = system: Enterobacter cloacae; experiment: MIC on Gram negative bacteria; format: cell-based; settings: Enterobacter cloacae SG 3 II, clinical isolate; read-out: Minimal Inhibitory Concentration
Method: as §1, §2

[4] = system: K. oxytoca; experiment: MIC on Gram negative bacteria; format: cell-based; settings: Klebsiella oxytoca; K. oxytoca 552, lab collection; read-out: Minimal Inhibitory Concentration
Method: as §1, §2

[5] = system: Klebsiella pneumoniae; experiment: MIC on Gram negative bacteria; format: cell-based; settings: Klebsiella pneumoniae SG 5 II, clinical isolate; read-out: Minimal Inhibitory Concentration
Method: as §1, §2

[6] = system: P. vulgaris; experiment: MIC on Gram negative bacteria; format: cell-based; settings: Proteus vulgaris; P. vulgaris UM, lab collection; read-out: Minimal Inhibitory Concentration
Method: as §1, §2

[7] = system: Proteus sp.; experiment: MIC on Gram negative bacteria; format: cell-based; settings: Proteus sp. SG 9 II, clinical isolate; read-out: Minimal Inhibitory Concentration
Method: as §1, §2

[8] = system: Pseudomonas aeruginosa; experiment: MIC on Gram negative bacteria; format: cell-based; settings: Pseudomonas aeruginosa IDI 3530, clinical isolate (ulcer); read-out: Minimal Inhibitory Concentration
Method: as §1, §2

[9] = system: S. typhimurium; experiment: MIC on Gram negative bacteria; format: cell-based; settings: Salmonella enterica; S. typhimurium DS, lab collection; read-out: Minimal Inhibitory Concentration
Method: as §1, §2

[10] = system: Bacteroides fragilis; experiment: MIC on anaerobic bacteria; format: cell-based; settings: ATCC25285; Bacteroides fragilis ATCC 25285, anaerobic, Gram negative, lab collection; read-out: Minimal Inhibitory Concentration
Method: (§3) Bacteria from cultures in […].) medium on Petri dishes, grown overnight at 35° C. in an anaerobic jar, were resuspended in Brucella broth. The suspensions were adjusted to 1.0×10^8 cells/ml and distributed (0.2 ml/well) in microtiter plates (96-well U-bottomed plate). At the same time, 0.3 log dilutions of the substances are mixed with W. C. agar medium in four-sectioned Petri dishes, which are then seeded with the bacterial suspension by means of a multipoint inoculator (1.0×10^5 cells/spot). The plates are then incubated at 35° C. for 48 hours in an anaerobic jar) (See J. E. ROSENBLATT, Antimicrobial susceptibility testing of anaerobes, in Antibiotics in laboratory medicine. V. LORIAN Ed., II edition, 6, 159-180, Williams & Wilkins, Baltimora, Md 21202 U.S.A.).

[11] = system: Eubacterium lentum; experiment: MIC on anaerobic bacteria; format: cell-based; settings: Eggerthella lenta; Eubacterium lentum IDI 3502, anaerobic, Gram positive clinical isolate (suppurative wound); read-out: Minimal Inhibitory Concentration
Method: as §3

[12] = system: Propionibacterium acnes; experiment: MIC on anaerobic bacteria; format: cell-based; settings: Cutibacterium acnes; Propionibacterium acnes IDI 3482, anaerobic, Gram positive clinical isolate (suppurative acne); read-out: Minimal Inhibitory Concentration
Method: as §3

[13] = system: anaerobic bacteria; experiment: MIC on anaerobic bacteria (all strains); format: cell-based; settings: for MIC: 3 strains
Method: as §3

[14] = system: Staphylococcus aureus LC1; experiment: In vivo antiinfective effect on topical mixed infection in mice; set-up: species or system BALB/c mice; settings: for S. aureus: Not cured animals (mean CFU/mouse) / S. aureus: Cured animals: 50 mg/day of 1% gel, topical, 5 days; for S. aureus: Cured animals: 5 animals/group; for activity on S. aureus, ST 1226 and ST 1103 compared: mixed topical infection
Method: (§4) Male inbred BALB/c mice (C. RIVER), aged 6 weeks were used (5 animals per group).
(§5) The animals were topically infected with pathogenic strains of Tricophyton (Tricophyton quinckeanum NCPF 309) and Staphylococcus (Staphylococcus aureus LC1).
(§6) Suspensions of fungal microaleuriospores and bacteria were adjusted to a final concentration of 5.0×10^7 and 1.0×10^7 cells/ml, respectively. Volumes of 0.2 ml of each suspension were applied onto the upper posterior zone of the animals, which had previously been shaved and gently abraded with a scalpel blade until "glistening". Treatment started 30 hours after the inocula by administering 50 mg of each substance in a gel form (1% test article) on the infected skin once a day for 5 consecutive days. Two days following the last treatment, animals were sacrificed and infected tissue samples were collected. Following homogenization and appropriate dilution in medium, tissue samples were plated (in Mycobiotic agar and Mannitol Salt agar for fungi and bacteria, respectively) to selectively assess the growth of the pathogens. Fungal growth is evaluated by means of an arbitrary scale, while bacterial growth is evaluated by determining the CFUs (Colony Forming Units).

[15] = system: Tricophyton quinckeanum NCPF 309; experiment: as above; set-up: species or system BALB/c mice; key to T. quinckeanum: Not cured animals (fungal growth): +++: confluent fungal growth (from a 1ml skin homogenate); ++: semiconfluent fungal growth (from a 1ml skin homogenate); +: moderate fungal growth (from a 1ml skin homogenate); settings: for T. quinckeanum: Cured animals: 5 animals/group
Method: as §4, §5, §6

[16] = Escherichia coli SG 4 II, clinical isolate
[17] = 50 mg/day of 1% gel, topical, 5 days

SMILES: CCCCCCCCCCCOC(=O)C[C@H](C[N+](C)(C)C)OC(=O)CC(C)C [ST 1103, isovaleryl L-carnitine undecyl ester methanesulfonate, reference compound]
- MIC [1]: 25 µg/mL
- MIC ([2]; E. coli 92 F, lab collection): 25 µg/mL
- MIC [2, 16]: 25 µg/mL
- MIC [3]: 25 µg/mL
- MIC [4]: 12.5 µg/mL
- MIC [5]: 50 µg/mL
- MIC [6]: 50 µg/mL
- MIC [7]: 50 µg/mL
- MIC [8]: 25 µg/mL
- MIC [9]: 25 µg/mL
- MIC [10]: 25 µg/mL
- MIC [11]: 3.12 µg/mL
- MIC [12]: 6.25 µg/mL
- MIC [13]: 11.4 µg/mL
- S. aureus: Not cured animals (mean CFU/mouse) [14]: 40 CFU/mouse
- S. aureus: Cured animals [14]: 80%
- activity on S. aureus, ST 1226 and ST 1103 compared [14]: identical activity on S. aureus
- T. quinckeanum: Not cured animals (fungal growth) [15, 17]: +
- T. quinckeanum: Cured animals [15, 17]: 80%

SMILES: CCCCCCCCCCC(=O)O[C@H](CC(=O)OCc1ccc(COC(=O)C[C@H](C[N+](C)(C)C)OC(=O)CCCCCCCCCC)cc1)C[N+](C)(C)C [ST 1226, bis(undecanoyl L-carnitine chloride)p-xylilene diester]
- MIC [1]: 6.25 µg/mL
- MIC ([2]; E. coli 92 F, lab collection): 25 µg/mL
- MIC [2, 16]: 12.5 µg/mL
- MIC [3]: 12.5 µg/mL
- MIC [4]: 25 µg/mL
- MIC [5]: 50 µg/mL
- MIC [6]: 50 µg/mL
- MIC [7]: 50 µg/mL
- MIC [8]: 50 µg/mL
- MIC [9]: 25 µg/mL
- MIC [10]: 12.5 µg/mL
- MIC [11]: 6.25 µg/mL
- MIC [12]: 6.25 µg/mL
- mean MIC value compared with ST 1103 [13]: smaller than ST 1103
- MIC [13]: 8.33 µg/mL
- S. aureus: Not cured animals (mean CFU/mouse) [14]: 50 CFU/mouse
- S. aureus: Cured animals [14]: 80%
- activity on S. aureus, ST 1226 and ST 1103 compared [14]: identical activity on S. aureus
- T. quinckeanum: Cured animals [15, 17]: 100%
- antifungal activity compared with ST 1103 ([15]; mixed topical infection): greater antinfungal activity than ST 1103
